Reference: PMC8103899, “Allyl Isothiocyanate: A TAS2R38 Receptor-Dependent Immune Modulator at the Interface Between Personalized Medicine and Nutrition” (Frontiers in Immunology, 2021)
Read-outs that look alike come from different tables or passages of the source.

What was measured:
NO production = experiment: Nitric oxide detection by flow cytometry (DAF-FM) in PBMC; format: cell-based, human; details: for NO production increase: monocytes, 5h
Experimental: PBMC (0.25x10^6) were suspended in DMEM medium and exposed to solvent control, AITC or 100 µM of the NO-donor SNAP (positive control) in 96-well plates for 30-270 min in a humidified incubator (5% CO2, 37°C). After that, cells were then loaded with 0.5 µM DAF-FM diacetate prepared in HBSS buffer for another 30 min. DAF-FM loading at this low concentration allows reducing the background fluorescence and improving the signal to noise ratio in a single cell ([34]). After incubation, the cells were washed twice with PBS, followed by 30 min. de-esterification of the intracellular diacetates in the dark at room temperature. Fluorescence signals (ex 488 nm, em 530± 30 nm) were monitored using a FACSCalibur™ flow cytometer. The median fluorescence intensity (MFI) of each sample was calculated using FlowJo software (Ashland, Oregon, USA). DAF-FM-DA has a detection limit of about 5 nM NO ([35]).
Figure 3 AITC stimulates NO production and exerts bactericidal activity in dependence of the TAS2R38 haplotype. PBMC were isolated from AVI/AVI or PAV/PAV genotype subjects and (A) exposed to 0.01% DMSO (SC), AITC, the NO-donor SNAP (positive control), or the NO scavenger cPTIO for the indicated time points. Then, 0.5 µM DAF-FM diacetate was added for 30 min. Fluorescence signals (ex 488 nm, em 530± 30 nm) were monitored using a FACSCalibur™. The median fluorescence intensity (MFI) of each sample was calculated using FlowJo software (Ashland, Oregon, USA). A representative histogram of one PAV/PAV subject is shown on the top, (B) incubated with E. coli K-12 at MOI 0.5 and exposed to 0.01% DMSO (SC) or AITC for 120 min at 37°C. Cell membrane potential depolarization was determined by staining bacteria with 1 µg/ml DiBAC4(3) for 10 min, in the dark at room temperature. Representative scattergrams of E. coli K-12 and PBMC treated with E. coli K-12 are given. An FSC/SSC plot was first made and E. coli K-12 cells gated. The population was copied to a SSC/DiBAC4(3)-scatterplot identifying the percentage of depolarized bacteria. Bars are mean value + SD, *p < 0.05, **p < 0.01. Significance of difference was calculated relative to the respective control by one-way ANOVA. […]

[1] = tested on: TNF-α, IL-1β, IL-2, IL-6, IL17-A, IL-10; experiment: Cytokine secretion of CD3/CD28 mAbs stimulated PBMC (MACSplex / ELISA); format: cell-based, human
Experimental: (§1) PBMC (1x10^6/mL) cultured in RPMI 1640 medium supplemented with 10% heat-inactivated fetal calf serum, 2 mM L-glutamine, 100 U/ml penicillin/streptomycin were stimulated with 0.5 ng/ml CD3/CD28 MAbs and exposed to the test compounds. After 24 h, supernatants were collected and stored at -80°C until analysis using the human MACSplex cytokine 12-kit (Miltenyi Biotec GmbH, Bergisch Gladbach, Germany) according to manufacturer’s protocol to quantify cytokine secretion. Supernatants were also used for photometric quantification by the human TNF-alpha or IL-1β ELISA Ready-Set-Go kit from eBIoscience (Frankfurt, Germany) according to the manufacturer’s instructions.
Figure 6 In […] PBMC, AITC triggers MAPK activation as well as TNF-α release in dependence of the TAS2R38 genotype. PBMC were exposed to AITC or 0.01% DMSO (SC) together with 0.5 ng/mL CD3/CD28 MAbs for 24h (A, B). Cytokine secretion was analyzed using the human MACSplex cytokine 12-kit or ELISA kits. Results are mean values + SD and given as fold of the solvent control. Significance of difference was determined compared to the respective SC as determined by one-way ANOVA, *p < 0.05, **p < 0.01.

TRPA1 = TRPA1 overexpressing cells, read-out: EC50 for the activation of TRPA1, cited from earlier work
[2] = parameters: method as in PMID 26317351; details: rats, oral dosing; cited from earlier work
TNF-α = TNF-α secretion of PBMC (ELISA), LPS stimulated or unstimulated; format: cell-based, human
Experimental: as §1
Figure 5 In bacterial LPS stimulated PBMC, AITC triggers MAPK activation and TNF-α inhibition in dependence of the TAS2R38 genotype. PBMC were exposed to AITC or 0.01% DMSO (SC) together with 100 pg/mL LPS. (A) Representative immunoblots are given. Densitometric analysis was done to quantify the immunoblots using Quantity One software (Bio-Rad, Munich, Germany) and normalized against β-actin, which was used as loading control. (B, C) Cytokine secretion at 3 and 24 h was analyzed using ELISA kits. (D) Time kinetic of TNF-α mRNA expression. Results are means + SD and given as fold of the solvent control. Results were calculated relative to the corresponding solvent control (SC, 0.01% DMSO). Significance of difference was determined compared to the respective SC by one-way ANOVA, *p < 0.05, **p < 0.01.

For C=CCN=C=S [AITC, allyl isothiocyanate], which “NO in monocyte cell population” value (NO production; AITC ≥ 10 µM, 1h, PAV/PAV (not AVI/AVI)) is on record?
Its value is “insignificant increase”.

What about the “NO production in the lymphocyte population” value (NO production; PAV/PAV vs AVI/AVI, NO only detected after 5h at 100 µM AITC) of the same compound?
The value was “no differential regulation”.

And the NO production increase (NO production; AVI/AVI, 100 µM AITC)?
Its NO production increase is 41%.

And the NO production increase (NO production; PAV/PAV, 3 µM AITC)?
Its NO production increase is 46%.

And the “modulation of IL-2, IL-6, IL17-A and IL-10” value ([1]; CD3/CD28 mAbs stimulated PBMC)?
The value was “not clearly genotype dependent”.

What about the “effect on TNF-α” value ([1]; CD3/CD28 mAbs stimulated cells, AVI/AVI group, 24h) of the same compound?
Its value is “No effect”.

And the TNF-α secretion ([1]; CD3/CD28 mAbs stimulated cells, PAV/PAV, 24h)?
Its TNF-α secretion is “Similar, but less strong effects”.

And the IL-1β ([1]; CD3/CD28 mAbs stimulated, PAV/PAV vs. AVI/AVI cells)?
Its IL-1β is “differential inhibition”.

What about the “time to peak plasma level” value [2] of the same compound?
The value was ≤ 0.5 h.

What about the TNF-α release (TNF-α; AITC exposure without inflammatory stimulus (data not shown)) of the same compound?
Its TNF-α release is “no change”.

What about the inhibition at 3 µM (TNF-α; Homo sapiens, 3 h LPS activated PBMC, 3 µM AITC, dependent on TAS2R38 receptor functionality, read-out: peak inhibition of TNF-α secretion) of the same compound?
Its inhibition at 3 µM is 54%.

And the TNF-α secretion (TNF-α; LPS, prolonged incubation 24 h, PAV/PAV group, all tested concentrations)?
Its TNF-α secretion is “abolished the effect”.
